The text below walks through data of patent US9060966B2, “Use of 2,5-dihydroxybenzene derivatives for the treatment of arthritis and pain” (priority 2006, dated 2015).

Experiment [1] has as its system human retinal endothelial cells (HREC). The experiment in a line: Proliferation of human retinal endothelial cells (HREC, crystal violet). The format is cell-based. The conditions noted are these: 72 h. As to the method: (§1) 2A-5HBS was administered or not administered (control) after seeding the HREC in 24-well plates (7.5×10^3 per well) until they were fixed after 72 hours. The data are expressed as the mean±SEM of the percentage of the absorbance at 595 nm obtained in the control cultures, which is proportional to the number of cells stained with crystal violet. The data were obtained from 6 cultures for each treatment in two separate experiments. The white bar represents the value of the control cells, whereas the gray bars show the value in the presence of 2A-5HBS (500 and 1000 μM). * indicates p<0.05, *** p<0.001 with respect to the control by means of a single-factor analysis of variance (ANOVA) followed by a Student-Newman-Keuls post-analysis.
as §1, with “5A-2HBS” for “2A-5HBS”, “striped” for “gray”, “***” for “*”, “indicates” for “indicates p<0.05, ***”
2,5-DHCME was administered or not administered (control) after seeding the HREC in 24-well plates (7.5×10^3 per well) until they were fixed after 72 hours. The data are expressed as the mean±SEM of the percentage of the absorbance at 595 nm obtained in the control cultures, which is proportional to the number of cells stained with crystal violet. The data were obtained from 6 cultures for each treatment in two separate experiments.
Primary cultures of human retinal endothelial cells (HREC) were used. Cells were obtained from Cell Systems (Virginia, USA) and subcultured with CSC complete medium (Cell Systems). Cells at 2 to 5 passages were seeded in 24-well plates at 7,500 cells/well density and, once attached, the cells were treated o not treated (controls) with 2A-5HBS (500 and 1000 μM) or 5A-2HBS (500 and 1000 μM) and they were allowed to proliferate for 72 hours, with daily medium changes. After that, the proliferation of HREC was evaluated by staining the fixed cells with crystal violet. The number of cells is proportional to the amount of retained dye, which was spectrophotometrically determined by measuring absorbance at 595 nm after removing the dye from the cells. Data are expressed as the percentage of absorbance at 595 nm obtained in control conditions. Data were obtained from two different experiments performed in triplicate.
Primary cultures of human retinal endothelial cells (HREC) were used. Cells were obtained from Cell Systems (Virginia, USA) and subcultured with CSC complete medium (Cell Systems). […] After that, the proliferation of HREC was evaluated by staining the fixed cells with crystal violet. The number of cells is proportional to the amount of retained dye, which was spectrophotometrically determined by measuring absorbance at 595 nm after removing the dye from the cells. Data are expressed as the percentage of absorbance at 595 nm obtained in control conditions. […]

Experiment [2] concerns corneal neovascularization. Description: Topical treatment of human corneal neovascularization. The format is in vivo. The conditions noted are these: 5% solution of potassium salt, 4 drops a day topical, 19 days, one patient. The source says:
Photographs showing the presence of corneal neovascularization in a patient before being treated (A) and after 19 days of topical application of a solution containing 5% of potassium 2,5-dihydroxybenzoate (B). The treatment consisted of daily topical application of 4 drops of such solution.
4 drops a day were topically applied in a patient that presented a corneal neovascularization process refractory to any type of previous treatment.

Experiment [3] deals with rat C6 glioma cells. Description: Proliferation of rat glioma C6 cells (crystal violet). The format is cell-based. Conditions: 500 μM, 48 h. Here is the method: FIG. 23. […] 5A-2HBS and 2A-5HBS were administered or not (control) after seeding C6 cells in 24 well plates (10^4 per well) until they were fixed 48 hours later. Data are expressed as the mean±SEM of the percentage of absorbance at 595 nm obtained in control cultures, which is proportional to the number of cells stained with crystal violet. Data were obtained from 3 cultures for each treatment and 6 control cultures.
The cell line used was the C6 cell line and the experiment was carried out as described in examples 2 and 3. Once adhered, the cells were treated or not (controls) with (5A-2HBS) (500 μM) or (2A-5HBS) (500 μM) and they were allowed to proliferate for 48 h. After this time the glioma cell proliferation was evaluated by means of staining the fixed cells with crystal violet. The number of cells is proportional to the amount of retained dye, which was determined spectrophotometrically by measuring the absorbance at 595 nm once the dye was extracted from the cells.

The target of experiment [4] is T1, fibroblast growth factor-1 (FGF-1) (Homo sapiens, UniProt P05230). Description: Co-crystallisation with FGF-1 (crystal diffraction of complexes). The format is binding. The conditions noted are these: for acetoxyl groups of the compound when bound to the protein: electron density contoured at 1σ; for binding site on FGF-1 in the crystal complex: reference: site of 2,5-dihydroxybenzene sulfonic acid, lysine 132. The source says: FIG. 24. 2-acetoxy-5-hydroxybenzenesulfonic acid co-crystallized with fibroblast growth factor-1. […] The compound occupies a place that is very close to that described occupied by 2,5-dihydroxybenzenesulfonic acid, the aromatic ring of which forms a […] bond with the N^ε group of lysine 132, which is marked in panel A as reference. […] In panels A and B, the protein surface is colored according to its electrostatic potential (light grey: negative charge; dark grey: positive charge; white: lack of charge).
FIG. 25. 5-acetoxy-2-hydroxybenzenesulfonic acid co-crystallized with fibroblast growth factor-1. […] The compound occupies a place that is very close to that described occupied by 2,5-dihydroxybenzenesulfonic acid, the aromatic ring of which forms a cation-π bond with the N^ε group of lysine 132, which is marked in panel A as reference. […] In panels A and B, the protein surface is colored according to its electrostatic potential (light grey: negative charge; dark grey: positive charge; white: lack of charge).
FIG. 26. 2,5-diacetoxybenzenesulfonic acid co-crystallized with fibroblast growth factor-1. […] The compound occupies a place that is very close to that described occupied by 2,5-dihydroxybenzenesulfonic acid, the aromatic ring of which forms a cation-π bond with the N^ε group of lysine 132, which is marked in panel A as reference. […] In panels A and B, the protein surface is colored according to its electrostatic potential (light grey: negative charge; dark grey: positive charge; white: lack of charge).
Based on the crystal diffraction of the FGF-1:2-acetoxy-5-hydroxybenzene sulfonic acid, FGF-1:5-acetoxy-2-hydroxybenzene sulfonic acid and FGF-1:2,5-diacetoxybenzene sulfonic acid complexes, the structures of the complexes were calculated and represented. FIGS. 24, 25 and 26, which show the surface of the dyed protein according to its electrostatic potential (light grey: negative charge; dark grey: positive charge; white: lack of charge), show the manner in which 2-acetoxy-5-hydroxybenzene sulfonic acid, 5-acetoxy-2-hydroxybenzene sulfonic acid and 2,5-diacetoxybenzene sulfonic acid interact, respectively, with FGF-1.

For experiment [5], the target named is T1, fibroblast growth factor-1 (FGF-1). Description: Inhibition of fibroblast mitogenesis induced by FGF-1 in Balb/c 3T3 fibroblasts. The format is cell-based. Also noted: host or cells: added to Balb/c 3T3 fibroblasts (mouse). The conditions noted are these: quiescent Balb/c 3T3 cultures; potassium salts, except 2-acetoxy-5-hydroxybenzene sulfonate as calcium salt. Here is the method: The evaluated compounds were used in the form of potassium salt, except in the first case in which calcium salt was used. The experiments were carried out as described in Fernandez-Tornero C et al. J Biol Chem, 2003.

Experiment [6] relates to Leishmania major. The experiment in a line: Experimental infection with Leishmania major in a mouse model (paw thickness). The conditions noted are these: 200 mg/kg/day i.p. for 14 days from third week after infection, effect from the eighth week. The format is in vivo, mice. From the text:
The vehicle group consisted of infected animals that received daily injections of saline (0.9% NaCl) during the same period as DHBS. Results are expressed as the mean±the standard deviation of the increases in size of the inoculated paw (right) compared to the non-inoculated paw (left) in mm obtained with a Vernier caliper each week from 0 to 10. ** indicates p<0.01 vs. the vehicle-treated group by a Student t-test. 6 animals were used for each group.
The vehicle group consisted of infected animals that received daily injections of saline (0.9% NaCl) from the moment of the infection, while the control group consisted of non-infected animals. Results are expressed as the mean±the standard deviation of the increases in size of the inoculated paw (right) compared to the non-inoculated paw (left) in mm obtained with a Vernier caliper each week from 0 to 9. * indicates p<0.05 vs. the vehicle group by a Student t-test. 7 animals were used for each group.
The vehicle group consisted of infected animals that received daily injections of saline (0.9% NaCl) from the third week after the infection. Results are expressed as the mean±the standard deviation of the increases in size of the inoculated paw (right) compared to the non-inoculated paw (left) in mm obtained with a Vernier caliper each week from 0 to 9. * indicates p<0.05 vs. the vehicle group by a Student t-test. 7 animals were used for each group.
This model is based in the massive inoculation of Leishmania promatigotes in the mouse paw pad. Under these conditions, the parasite induces a progressive inflammation correlated with the multiplication of parasites at the site of inoculation. BALB/c strain female mice that developed severe and uncontrolled injuries were used (Foote S J, Handman E. Brief Funct Genomic Proteomic, 2005). This model has been used in pharmacology to monitor the therapeutic capacity of new leishmanicide compounds and the preventive capacity of potential vaccines against leishmaniasis ((Nelson K G et al. Antimicrob Agents Chemother. 2006).
The animals were inoculated with 5×10^6 of L. major promastigotes (strain Hervás) in 50 μL of PBS into the plantar pad of the right back paw. As negative control of the infection, a group of mice inoculated with 50 μL of PBS was used. The sizes of the lesions were measured every 7 days until the animals were sacrificed (week 9) using a Vernier caliper. The thickness of the right back paw (infected) and the left back paw (uninfected) of all the animals was measured at the base of the fifth toe. The progression of the inflammation is represented as the difference in thickness between the infected and the non-infected paws. […]

T1 sequence (P05230 whole entry, species assumed): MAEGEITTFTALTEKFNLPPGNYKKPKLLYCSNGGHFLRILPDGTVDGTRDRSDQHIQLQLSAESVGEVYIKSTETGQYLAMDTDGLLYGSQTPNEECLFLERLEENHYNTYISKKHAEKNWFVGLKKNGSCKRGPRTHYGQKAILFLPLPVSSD

Regarding `COC(=O)C=Cc1cc(O)ccc1O` [2,5-DHCME, 2,5-dihydroxycinnamic acid methyl ester], the HREC proliferation result in experiment [1] (50 μM) and in experiment [1] (100 μM) was “significant inhibition” throughout.

Take `O=C([O-])c1cc(O)ccc1O.[K+]` [2,5-dihydroxybenzoate, potassium 2,5-dihydroxybenzoate]: the “degree of corneal vascularization” value in experiment [2] is listed as “remarkable reduction in the degree of corneal vascularization”; in experiment [2] (listed as 2,5-dihydroxybenzoic acid) it was “noticeable reduction in the degree of corneal vascularization”.

Regarding `CC(=O)Oc1ccc(O)cc1S(=O)(=O)[O-].[K+]` [2A-5HBS, potassium 2-acetoxy-5-hydroxybenzene sulfonate], the “rat glioma cell proliferation” value in experiment [3] is “inhibition”. For the same compound, in experiment [4], the “acetoxyl groups of the compound when bound to the protein” value is reported as “conserve the acetoxyl groups” and the “binding site on FGF-1 in the crystal complex” value is reported as “a site that is very close to the one that has been described occupied by 2,5-dihydroxybenzene sulfonic acid”. The HREC proliferation entry in experiment [1] (500 μM) was “significant inhibition”. Further, the HREC proliferation entry in experiment [1] (1000 μM) is reported as “significant inhibition”.

Regarding `CC(=O)Oc1ccc(O)c(S(=O)(=O)[O-])c1.[K+]` [5A-2HBS, potassium 5-acetoxy-2-hydroxybenzenesulfonate], the “rat glioma cell proliferation” value in experiment [3] is recorded as “inhibition”. Also, in experiment [4], the “acetoxyl groups of the compound when bound to the protein” value is listed as “conserve the acetoxyl groups” and the “binding site on FGF-1 in the crystal complex” value is reported as “a site that is very close to the one that has been described occupied by 2,5-dihydroxybenzene sulfonic acid”. For the same compound, the FGF-1 induced mitogenesis result in experiment [5] is “Inhibition”.

Turning to `O=S(=O)([O-])c1cc(O)ccc1O.[K+]` [potassium 2,5-dihydroxybenzenesulfonate], the “increase of paw thickness / size of the lesion (infected vs non-infected paw)” value in experiment [6] is on record as “Reduction in the size of the lesion”; in experiment [6] (listed as potassium 2,5-dihydroxybenzene sulfonate) it was “significant reduction in the increase of paw thickness”. Besides, the FGF-1 induced mitogenesis entry in experiment [5] was “Inhibition”.

Regarding “calcium 2-acetoxy-5-hydroxybenzenesulfonate”, in experiment [5], the FGF-1 induced mitogenesis result is listed as “Inhibition”.
